The target of one assay is T1, human recombinant COX-2 (Homo sapiens, UniProt P35354).
T1 construct: purchased Oxford Biomedical Research Inc
T1 sequence (P35354 18-604): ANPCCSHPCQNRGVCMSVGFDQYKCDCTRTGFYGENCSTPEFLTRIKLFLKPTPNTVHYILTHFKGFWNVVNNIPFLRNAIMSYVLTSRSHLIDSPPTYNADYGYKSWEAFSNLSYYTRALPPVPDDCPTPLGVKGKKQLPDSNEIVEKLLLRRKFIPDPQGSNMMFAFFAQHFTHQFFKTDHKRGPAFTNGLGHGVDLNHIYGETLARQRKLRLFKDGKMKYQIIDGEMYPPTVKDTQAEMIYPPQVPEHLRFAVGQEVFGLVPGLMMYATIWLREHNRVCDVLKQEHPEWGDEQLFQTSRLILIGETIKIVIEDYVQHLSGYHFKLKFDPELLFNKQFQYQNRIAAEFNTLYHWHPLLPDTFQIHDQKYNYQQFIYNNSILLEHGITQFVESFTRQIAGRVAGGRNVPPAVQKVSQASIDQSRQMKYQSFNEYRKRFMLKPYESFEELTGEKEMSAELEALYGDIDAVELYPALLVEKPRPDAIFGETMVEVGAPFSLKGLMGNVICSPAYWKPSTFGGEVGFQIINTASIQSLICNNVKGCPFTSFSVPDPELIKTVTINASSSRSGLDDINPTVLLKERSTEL
The assay can be described thus: Cyclooxygenase enzyme assay (TLC method), COX-2. It counts as biochemical. The note with it: human recombinant COX-2, preincubation 90-120 min, [1-14C] arachidonic acid; read-out: IC50 COX-2, inhibition of cyclooxygenase activity. As to the method: The compounds of formula I are potent inhibitors of COX-2. […] The resulting radiolabeled prostanoid compounds, i.e., the products of COX-2 reaction with arachidonic acid, were quantified.
Cyclooxygenase activity of ovine COX-1 (Oxford Biomedical Research Inc.) and human recombinant COX-2 (Oxford Biomedical Research Inc.) was assayed by a thin layer chromatography (TLC) method as follows. All inhibitors were dissolved in dimethyl sulfoxide to a stock solution of 5 mM. Human recombinant COX-2 (3 units) or ovine COX-1 (15 units) was incubated with inhibitors at several concentrations in a solution containing 100 mM Tris-HCl, pH7.8, 500 μM phenol and hematin for 90 to 120 minutes at room temperature (24° C.). In controls, equal volumes of DMSO without drug were added to the incubation mixture. After incubation for 90-120 minutes, [1-^14C] arachidonic acid (50 μM, 51 mCi/mmol) (DuPont NEN) was added and incubated at 37° C. for 2 minutes. The reaction was terminated by extraction with 1 ml of ethyl acetate. The ethyl acetate layer was transferred into a fresh tube and evaporated to dryness in a Speedvac vacuum dryer. […] Radiolabeled prostanoid compounds (the products of COX enzymatic reaction with radiolabeled arachidonic acid substrate) were quantitated with a radioactivity scanner (Fuji, Phosphorimager). […]

The next assay has as its target T2, ovine COX-1 (Ovis aries, UniProt P05979).
T2 construct: purchased Oxford Biomedical Research Inc
T2 sequence (P05979 25-600): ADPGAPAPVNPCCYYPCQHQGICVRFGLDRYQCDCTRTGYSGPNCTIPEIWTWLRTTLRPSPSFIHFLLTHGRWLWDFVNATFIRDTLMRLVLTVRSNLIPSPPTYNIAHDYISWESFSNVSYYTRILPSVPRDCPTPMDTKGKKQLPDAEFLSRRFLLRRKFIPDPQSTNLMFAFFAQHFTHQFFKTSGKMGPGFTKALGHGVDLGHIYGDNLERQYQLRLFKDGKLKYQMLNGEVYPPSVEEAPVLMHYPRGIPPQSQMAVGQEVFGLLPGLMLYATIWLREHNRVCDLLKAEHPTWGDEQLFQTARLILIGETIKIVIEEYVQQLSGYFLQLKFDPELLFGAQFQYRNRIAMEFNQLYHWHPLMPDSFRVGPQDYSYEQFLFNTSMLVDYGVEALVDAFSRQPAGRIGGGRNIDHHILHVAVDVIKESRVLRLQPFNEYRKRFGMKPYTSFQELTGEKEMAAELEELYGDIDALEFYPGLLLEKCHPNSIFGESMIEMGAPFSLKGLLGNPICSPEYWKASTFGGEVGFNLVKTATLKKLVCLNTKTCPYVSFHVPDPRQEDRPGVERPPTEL
The assay can be described thus: Cyclooxygenase enzyme assay (TLC method), COX-1. It counts as biochemical. To be noted: ovine COX-1, preincubation 90-120 min, [1-14C] arachidonic acid; read-out: IC50 COX-1, inhibition of cyclooxygenase activity. As to the method:
Cyclooxygenase activity of ovine COX-1 (Oxford Biomedical Research Inc.) and human recombinant COX-2 (Oxford Biomedical Research Inc.) was assayed by a thin layer chromatography (TLC) method as follows. All inhibitors were dissolved in dimethyl sulfoxide to a stock solution of 5 mM. Human recombinant COX-2 (3 units) or ovine COX-1 (15 units) was incubated with inhibitors at several concentrations in a solution containing 100 mM Tris-HCl, pH7.8, 500 μM phenol and hematin for 90 to 120 minutes at room temperature (24° C.). In controls, equal volumes of DMSO without drug were added to the incubation mixture. After incubation for 90-120 minutes, [1-^14C] arachidonic acid (50 μM, 51 mCi/mmol) (DuPont NEN) was added and incubated at 37° C. for 2 minutes. The reaction was terminated by extraction with 1 ml of ethyl acetate. The ethyl acetate layer was transferred into a fresh tube and evaporated to dryness in a Speedvac vacuum dryer. The contents of the tubes were reconstituted in […] of ethyl acetate and spotted on a TLC plate (J. T. Baker, Phillipsburg, N.J.) and developed in a mobile phase containing chloroform/methanol (95:5) at 4° C. Radiolabeled prostanoid compounds (the products of COX enzymatic reaction with radiolabeled arachidonic acid substrate) were quantitated with a radioactivity scanner (Fuji, Phosphorimager). […]

In a further assay the test system is DLD-1 cells. As to the kind of experiment: Soft agar assay, colony growth of DLD-1 cells. To be noted: highest concentration tested (range 10 μM to 75 μM), one dose, stained after 20 days, versus untreated control cells. It counts as cell-based, human. As to the method:
The Example 1 and 24 compounds were compared to the COX-2 inhibitor celecoxib in inhibiting the growth of DLD-1 cells in soft agar. DLD-1 cells are human colorectal carcinoma cells that overexpress COX-2. DLD-1 cells grow in soft agar and form tumors in nude mice. The soft agar assay was performed as follows. A layer of bottom agar ([…]) was placed onto 60 mm^2 tissue culture dishes. The tumor cells were trypsinized from normal growth flasks while in exponential growth. The cells were counted by using a hemacytometer and 1.0×10^5 cells were placed into the top agar mixture containing growth medium, 4% noble agar and various concentrations of drugs. The concentration range was normally between 10 μM to 75 μM. The cells were not refed during the assay system; therefore, the cells were treated with one dose of the agents. The plates were stained 20 days later with a 0.05% (w/v) nitroblue tetrazolium solution (which stains only viable cells) for 48 hours. The results are shown in FIG. 1, the y-axis being the percent of cell colonies remaining in comparison to untreated control cells.

As to `NS(=O)(=O)c1ccc(N2N=C(C(F)(F)F)CC2c2c[nH]c3ccccc23)cc1` (stereo not drawn) [Example 24, 1-(4-sulfamylphenyl)-3-trifluoromethyl-5-(3-indolyl)-2-pyrazoline], the IC50 – broadly, the midpoint of a concentration-inhibition curve – on human recombinant COX-2 was 78 nM; at ovine COX-1, above 100000 nM. Further, the “inhibition of DLD-1 cell colony growth in soft agar” value in the assay on DLD-1 cells came to 100%.

For `NS(=O)(=O)c1ccc(N2N=C(C(F)(F)F)CC2c2ccccc2)cc1` (stereo not drawn) [Example 1, 1-(4-sulfamylphenyl)-3-trifluoromethyl-5-phenyl-2-pyrazoline], the IC50 was 100 nM on human recombinant COX-2 and above 100000 nM at ovine COX-1. The “inhibition of DLD-1 cell colony growth in soft agar” value in the assay on DLD-1 cells amounted to 100%.

(Values after US20070066651A1, “Pyrazoline derivatives useful for the treatment of cancer” (LABORATORIOS DEL DR. ESTEVE S.A., priority 2004, published 2007).)
